IC50 data for 32 compounds are collected here from US11021481B2, “Substituted isoindolin-1-ones and 2,3-dihydro-1h-pyrrolo[3,4-c]pyridin-1-ones as HPK1 antagonists” (Nimbus Saturn, Inc., priority 2019, dated 2021).

Structures can show the parent of a compound that is named as a salt.

HPK1, sequence (Q92918 whole entry): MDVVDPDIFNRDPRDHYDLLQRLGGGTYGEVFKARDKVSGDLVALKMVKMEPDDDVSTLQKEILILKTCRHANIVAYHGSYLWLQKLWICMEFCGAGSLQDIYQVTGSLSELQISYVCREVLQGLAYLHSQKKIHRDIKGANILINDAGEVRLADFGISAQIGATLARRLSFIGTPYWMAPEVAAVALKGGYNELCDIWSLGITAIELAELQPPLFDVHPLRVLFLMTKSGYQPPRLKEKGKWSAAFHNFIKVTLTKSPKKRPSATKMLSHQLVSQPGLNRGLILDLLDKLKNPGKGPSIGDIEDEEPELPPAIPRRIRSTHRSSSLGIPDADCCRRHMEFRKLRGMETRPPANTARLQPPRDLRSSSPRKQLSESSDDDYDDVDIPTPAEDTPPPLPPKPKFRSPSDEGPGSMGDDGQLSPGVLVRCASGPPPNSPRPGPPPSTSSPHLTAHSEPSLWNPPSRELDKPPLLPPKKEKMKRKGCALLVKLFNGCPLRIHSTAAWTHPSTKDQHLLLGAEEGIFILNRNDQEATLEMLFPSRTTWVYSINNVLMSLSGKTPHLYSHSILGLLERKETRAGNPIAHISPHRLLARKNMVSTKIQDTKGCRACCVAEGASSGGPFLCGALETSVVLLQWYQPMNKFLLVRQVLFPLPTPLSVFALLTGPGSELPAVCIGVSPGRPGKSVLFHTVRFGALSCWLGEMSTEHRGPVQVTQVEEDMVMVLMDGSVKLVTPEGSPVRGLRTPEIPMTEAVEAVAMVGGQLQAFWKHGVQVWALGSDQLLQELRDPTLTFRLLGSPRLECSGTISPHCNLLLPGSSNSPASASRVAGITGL

This assay concerns the target HPK1 (Homo sapiens (Human), UniProt Q92918). Briefly: HPK1 biochemical enzyme assay (microfluidic mobility shift assay). Particulars: 1.5 nM HPK1, ATP 1 mM final, 30 min preincubation, 60 min at RT, Caliper EZ Reader; read-out: HPK1 1000UMATP caliper IC50. The method in brief:
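Mobility shift readout of HPK1 activity after a 60 min RT reaction with 1 mM ATP, 1 μM substrate and 5 mM MgCl2. Enzyme/substrate mix was first exposed to compounds for 30 min, using ten-point curves topping at 3 μM final.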
As to `Cn1ccc2c(-c3ccc(-n4ccc(N5CCC(O)CC5)n4)c4c3CNC4=O)ccnc21` [I-308, 7-(3-(4-hydroxypiper-idin-1-yl)-1H-pyrazol-1-yl)-4-(1-methyl-1H-pyrrolo[2,3-b)pyridin-4-yl)isoindolin-1-one], the half-maximal inhibitory concentration (IC50) (commonly the concentration that gives 50% inhibition) is above 1000 nM. Take `CN(C)Cc1nc(Nc2ccc(-c3cnc4cc(F)ccn34)c3c2C(=O)NC3)ccc1N1CC[C@H](O)C1` [I-555]: the concentration for half-maximal inhibition (IC50) is below 100 nM. Regarding `Cn1ccc2c(-c3ncc(Nc4ccc(N5CCC[C@@H](C(C)(C)O)C5)cn4)c4c3CNC4=O)ccnc21` [I-212, 7-[[5-[(3R)-3-(1-hydroxy-1-methyl-ethyl)-1-piperidyl]-2-pyridyl]amino]-4-(1-methylpyrrolo [2,3-b]pyridin-4-yl)-2,3-dihydropyrrolo [3,4-c]pyridin-1-one], the half-maximal inhibitory concentration (IC50) was below 100 nM. As to `CC1(CO)CCN(c2ccc(Nc3ccc(-c4cnc5cc(F)ccn45)c4c3C(=O)NC4)nc2)CC1` [I-433, 4-(7-fluoroimidazo [1,2-a]pyridin-3-yl)-7-((5-(4-(hydroxymeth-yl]-4-methylpiperidin-1-yl)pyridin-2-yl)amino)isoin-dolin-1-one], the concentration for half-maximal inhibition (IC50) was below 100 nM. Take `Cn1ccc2c(-c3ccc(Nc4ccc(N5CCNCC5)cn4)c4c3C(C)(C)NC4=O)ccnc21` [I-273, 3,3-dimethyl-4-(1-methyl-1H-pyrrolo[2,3-b]pyridin-4-yl)-7-((5-(piperazin-1-yl)pyridin-2-yl)amino)isoindolin-1-one]: the IC50 is above 1000 nM.

As to `O=C1NCc2c(-c3cncc4nccn34)ncc(Nc3ccc(N4CCC(O)CC4)cn3)c21` [I-376, 7-((5-(4-hydroxypiperidin-1-yl)pyridin-2-yl)amino)-4-(imidazo[1,2-a]pyrazin-5-yl)-2,3-dihydro-1H-pyrrolo[3,4-c]pyridin-1-one], the IC50 was 100 to 1000 nM.

On to `CN(C)C[C@]1(O)CCCN(c2ccc(Nc3ccc(-c4cnc5cc(F)ccn45)c4c3C(=O)NC4)nc2)C1` [I-567, (R)-7-((5-(3-((dimethylamino)-methyl)-3-hydroxypiperidin-1-yl)pyridin-2-yl)amino)-4-(7-fluoroimidazo [1,2-a]pyridin-3-yl)isoindolin-1-one], for which the IC50 is below 100 nM.

Take `COCC1CN(c2ccc(Nc3ccc(-c4ncnc5c4ccn5C)c4c3C(=O)NC4)nc2)CCO1` (stereo in doubt) [I-649, (R)-7-((5-(2-(methylmeth-yl)morpho-lino)pyridin-2-yl)amino)-4-(7-methyl-7]-4-pyrrolo[2,3-d]pyrimidin-4-yl)isoindolin-1-one]: the IC50 was below 100 nM. As to `CN1CCN(c2ccc(Nc3cnc(-c4c(-c5ccccc5)[nH]c5ccccc45)c4c3C(=O)NC4)nc2)CC1` [I-141, 7-((5-(4-Methylpiperazin-1-yl)pyridin-2-yl)amino)-4-(2-phenyl-1H-indol-3-yl)-2,3-dihydro-1H-pyrrolo[3,4-c]pyridin-1-one], the IC50 was below 100 nM. Take `CN1CCc2ccc(Nc3cnc(-c4ccnc5c4ccn5C)c4c3C(=O)NC4)nc2C1` [I-418, 4-(1-methyl-1H-pyrrolo[2,3-b]pyridin-4-yl)-7-((7-methyl-5,6,7,8-tetrahydro-1,7-naphthyridin-2-yl)amino)-2,3-dihydro-1H-pyrrolo[3,4-c]pyridin-1-one]: the IC50 was above 1000 nM. As for `CN(C)Cc1nc(Nc2ccc(-c3cnc4cc(F)ccn34)c3c2C(=O)NC3)ccc1N1CCC(O)CC1` [I-777, 7-((6-((dimethylamino)-methyl)-5-(4-hydroxypiperidin-1-yl)pyridin-2-yl)amino)-4-(7-fluoroimidazo [1,2-a]pyridin-3-yl)isoindolin-1-one], the figure is below 100 nM; as for `CN(C)C(C)(C)C1CN(c2ccc(Nc3ccc(-c4cnc5cc(F)ccn45)c4c3C(=O)NC4)nc2)CCO1` (centres unmarked) [I-564, 7-((5-(2-(2-(dimethylami-no)propan-2-yl)morpholino)pyridin-2-yl)amino)-4-(7-fluoroimidazo [1,2-a]pyridin-3-yl)isoindolin-1-one], below 100 nM. Turning to `CN1CCN(c2ccc(Nc3cnc(-c4cnn5c4CCCC5)c4c3C(=O)NC4)nc2)CC1` [I-255, 7-((5-(4-methylpiperazin-1-yl)pyridin-2-yl)amino)-4-(4,5,6,7-tetrahydropyra-zolo[1,5-a]pyridin-3-yl)-2,3-dihydro-1H-pyrrolo[3,4-c]pyridin-1-one], the IC50 was below 100 nM. As for `O=C1NCc2c(-c3cnc4c(F)cccn34)ncc(Nc3ccc(C4(O)CCOCC4)cn3)c21` [I-683, 4-(8-fluoroimidazo [1,2-a]pyridin-3-yl)-7-((5-(4-hydroxytetra-hydro-2H-pyran-4-yl)pyridin-2-yl)amino)-2,3-dihydro-1H-pyrrolo[3,4-c)pyridin-1-one], the IC50 is below 100 nM. In the case of `CNC1CCN(c2ccc(Nc3ccc(-c4ccnc5[nH]ccc45)c4c3C(=O)NC4)nc2)CC1` [I-57, 7-[[5-[4-(methylamino)-1-piperidyl]-2-pyridyl]amino]-4-(1H-pyrrolo[2,3-b]pyridin-4-yl)isoindolin-1-one], the IC50 was below 100 nM. `O=C1NCc2c(-c3cnc4cnccn34)ccc(Nc3ccc(N4CC(O)C4)cn3)c21` [I-315, 7-((5-(3-hydroxyazeti-din-1-yl)pyridin-2-yl)amino)-4-(imidazo[1,2-a]pyrazin-3-yl)isoindolin-1-one]: the IC50 was below 100 nM. In the case of `Cc1ccn2c(-c3ccc(Nc4ccc(C(C)(C)C(=O)NCCN(C)C)cn4)c4c3CNC4=O)cnc2c1F` [I-456, N-[2-(dimethylami-no)ethyl]-2-[6-[[7-(8-fluoro-7-methyl-imidazo[1,2-a]pyridin-3-yl)-3-oxo-isoindolin-4-yl]amino]-3-pyridyl]-2-methyl-propanamide] it was below 100 nM; in that of `O=C1NCc2c(-c3cnc4cc(F)ccn34)ccc(Nc3ccc([C@@H]4CCOC4)cn3)c21` [I-222, (S)-4-(7-fluoroimidazo [1,2-a]pyridin-3-yl)-7-((5-(tetrahydro-furan-3-yl)pyridin-2-yl)amino)isoin-dolin-1-one], below 100 nM; in that of `O=C1NCc2c(-c3cnc4cc(F)ccn34)ccc(Nc3cc(C4CCOCC4)[nH]n3)c21` [I-381, 4-(7-fluoroimidazo [1,2-a]pyridin-3-yl)-7-((5-(tetrahydro-2H-pyran-4-yl)-1H-pyrazol-3-yl)amino)isoin-dolin-1-one], below 100 nM. Regarding `Cn1cc2ncc(-c3ccc(Nc4ccc(N5CCC(O)CC5)cn4)c4c3CNC4=O)c-2cn1` [I-448, 7-((5-(4-hydroxy-piperidin-1-yl)pyridin-2-yl)amino)-4-(6-methyl-6H-pyrrolo[2,3-d]pyridazin-3-yl)isoindolin-1-one], the IC50 was 100 to 1000 nM. With `COCC1(c2ccc(Nc3ccc(-c4cnc5cc(F)ccn45)c4c3C(=O)NC4)nc2CN(C)C)CCOCC1` [I-831], the 50% inhibitory concentration (IC50) is below 100 nM.

For `Cc1cc(Nc2cnc(-c3ccnc4c3ccn4C)c3c2C(=O)NC3)nc(N2CC[C@H]3CNC[C@H]32)c1` [I-641, 7-((6-((3aS.6aS)-hcxahydropyrr-olo[3,4-b]pyrrol-1(2H)-yl)-4-methylpyridin-2-yl)amino)-4-(1-methyl-1H-pyrrolo[2,3-b]pyridin-4-yl)-2,3-dihydro-1H-pyrrolo[3,4-c]pyridin-1-one], the half-inhibitory concentration (IC50) was below 100 nM. As for “4-(7- fluoroimidazo [1,2-a]pyridin- 3-yl)-7-[[5-(4- morpholino-1- piperidyl)-2- pyridyl]amino] isoindolin-1- one [I-488]”, the half-inhibitory concentration (IC50) is below 100 nM.

In the case of `O=C1NCc2c(-c3cnc4cnccn34)ccc(Nc3ccc(S(=O)(=O)N4CCC4)cn3)c21` [I-307, 7-((5-(azetidin-1-ylsulfonyl)-pyridin-2-yl)amino)-4-(imidazo[1,2-a]pyrazin-3-yl)isoindolin-1-one], the half-maximal inhibitory concentration (IC50) lay within 100 to 1000 nM. `CN(C)C1CCCc2ccc(Nc3ccc(-c4cnc5cc(F)ccn45)c4c3C(=O)NC4)nc21` (centres unmarked) [I-536, 7-[[8-(dimethylami-no)-5,6,7,8-tetrahydroquin-olin-2-yl]amino]-4-(7-fluoroimidazo [1,2-a]pyridin-3-yl)isoindolin-1-one Formic acid salt]: the half-inhibitory concentration (IC50) is below 100 nM. For the compound `CO[C@]1(CN(C)C)CCCN(c2ccc(Nc3ccc(-c4cnc5cc(F)ccn45)c4c3C(=O)NC4)nc2)C1` [I-612, (S)-7-((5-(3-((dimethylamino)-methyl)-3-methoxy-piperidin-1-yl)pyridin-2-yl)amino)-4-(7-fluoroimidazo [1,2-a]pyridin-3-yl)isoindolin-1-one], the IC50 is below 100 nM.

In the case of `CN(C)Cc1nc(Nc2ccc(-c3cnc4cc(F)ccn34)c3c2C(=O)NC3)ccc1[C@H]1CCCOC1` [I-550], the IC50 is below 100 nM. In the case of `O=C1NCc2c(-c3cnc4cc(Cl)ccn34)ccc(Nc3ccc(N4CCC(O)CC4)cn3)c21` [I-187, 4-(7-chloroimidazo [1,2-a]pyridin-3-yl)-7-[[5-(4-hydroxy-1-piperidyl)-2-pyridyl]amino] isoindolin-1-one] it was below 100 nM; in that of `CN(Cc1nc(Nc2ccc(-c3cnc4cc(F)ccn34)c3c2C(=O)NC3)ccc1[C@@H]1CCOC1)C1COC1` [I-744, (S)-4-(7-fluoroimidazo [1,2-a]pyridin-3-yl)-7-((6-((methyl(oxe-tan-3-yl)amino)meth-yl)-5-(tetrahydrofuran-3-yl)pyridin-2-yl)amino)isoin-dolin-1-one], below 100 nM. As for `CN(Cc1nc(Nc2ccc(-c3cnc4cc(F)ccn34)c3c2C(=O)NC3)ccc1[C@@H]1CCOC1)C1CC1` [I-738], the figure is below 100 nM; as for `Cc1cc2c(-c3ncc(Nc4ccc(N5CCN(C)CC5)cn4)c4c3CNC4=O)ccnc2[nH]1` [I-55, 7-[[5-(4-methylpiperazin-1-yl)-2-pyridyl]amino]-4-(2-methyl-1H-pyrrolo[2,3-b]pyridin-4-yl)-2,3-dihydropyrrolo [3,4-c]pyridin-1-one], below 100 nM.

For `CC(C)N(C)Cc1nc(Nc2ccc(-c3cnc4cc(F)ccn34)c3c2C(=O)NC3)ccc1C1CCOC1` (stereo in doubt) [I-729, (S)-4-(7-fluoroimidazo [1,2-a]pyridin-3-yl)-7-((6-((isopropyl(methyl)amino)methyl)-5-(tetrahydrofuran-3-yl)pyridin-2-yl)amino)isoin-dolin-1-one], the concentration for half-maximal inhibition (IC50) is below 100 nM.
